Literature values, collected in patent US20240209370A1, “METHODS OF MODULATING ALK” (SOCIETE DES PRODUITS NESTLE S.A., priority 2017, published 2024).

molecular target: ALK (Homo sapiens, UniProt Q9UM73); conditions: effect on ALK activity or expression as listed from ctdbase, Medline or cited patents
Sequence (Q9UM73 19-1620): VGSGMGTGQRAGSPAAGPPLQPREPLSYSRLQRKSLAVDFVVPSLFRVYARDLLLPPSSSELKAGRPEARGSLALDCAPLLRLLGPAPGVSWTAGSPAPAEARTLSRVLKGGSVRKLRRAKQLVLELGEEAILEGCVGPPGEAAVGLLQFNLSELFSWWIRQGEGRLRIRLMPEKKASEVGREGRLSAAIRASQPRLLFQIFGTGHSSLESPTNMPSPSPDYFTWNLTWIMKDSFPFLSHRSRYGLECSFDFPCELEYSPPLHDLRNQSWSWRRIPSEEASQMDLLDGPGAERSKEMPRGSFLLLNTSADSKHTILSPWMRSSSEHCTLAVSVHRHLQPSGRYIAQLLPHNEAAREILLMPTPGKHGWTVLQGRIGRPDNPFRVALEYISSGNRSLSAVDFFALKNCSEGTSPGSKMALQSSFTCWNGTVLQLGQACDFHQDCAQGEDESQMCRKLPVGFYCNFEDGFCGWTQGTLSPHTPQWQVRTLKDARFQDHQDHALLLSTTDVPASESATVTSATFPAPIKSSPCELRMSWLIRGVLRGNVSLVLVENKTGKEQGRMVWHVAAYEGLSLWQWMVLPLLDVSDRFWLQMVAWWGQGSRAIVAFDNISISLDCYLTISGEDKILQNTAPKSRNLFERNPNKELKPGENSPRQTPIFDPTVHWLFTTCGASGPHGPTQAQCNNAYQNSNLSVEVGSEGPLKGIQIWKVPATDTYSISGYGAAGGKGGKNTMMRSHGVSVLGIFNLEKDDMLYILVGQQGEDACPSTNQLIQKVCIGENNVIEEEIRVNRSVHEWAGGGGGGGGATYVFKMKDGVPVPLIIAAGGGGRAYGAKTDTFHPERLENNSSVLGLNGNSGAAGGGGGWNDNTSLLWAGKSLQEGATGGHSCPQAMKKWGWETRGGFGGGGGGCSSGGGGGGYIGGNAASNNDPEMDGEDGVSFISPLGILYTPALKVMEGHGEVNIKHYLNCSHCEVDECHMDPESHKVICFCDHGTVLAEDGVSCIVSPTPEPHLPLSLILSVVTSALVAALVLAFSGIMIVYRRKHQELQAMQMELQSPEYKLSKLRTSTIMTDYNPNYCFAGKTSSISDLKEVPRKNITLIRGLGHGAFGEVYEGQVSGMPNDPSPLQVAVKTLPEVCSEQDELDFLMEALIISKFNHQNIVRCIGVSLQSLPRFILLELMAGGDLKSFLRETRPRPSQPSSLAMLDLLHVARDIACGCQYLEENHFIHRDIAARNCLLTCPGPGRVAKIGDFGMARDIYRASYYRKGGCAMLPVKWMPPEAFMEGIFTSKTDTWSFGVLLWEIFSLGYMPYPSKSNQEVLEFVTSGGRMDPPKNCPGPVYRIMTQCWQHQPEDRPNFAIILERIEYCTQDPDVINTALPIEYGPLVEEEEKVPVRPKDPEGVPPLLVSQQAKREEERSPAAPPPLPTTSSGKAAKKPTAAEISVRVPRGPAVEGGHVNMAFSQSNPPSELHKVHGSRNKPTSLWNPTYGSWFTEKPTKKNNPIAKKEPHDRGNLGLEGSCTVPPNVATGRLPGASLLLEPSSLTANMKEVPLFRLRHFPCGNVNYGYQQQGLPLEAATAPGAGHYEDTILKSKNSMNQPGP

Row | Interaction Actions | Molecule
1 | affects activity | CC(=O)N[C@@H](CS)C(=O)O [Acetylcysteine]
2 | decreases activity | C[C@H](Cc1ccc(O)c(O)c1)[C@@H](C)Cc1ccc(O)c(O)c1 [Masoprocol]
3 | decreases expression | CC1=C(/C=C/C(C)=C/C=C/C(C)=C/C(=O)O)C(C)(C)CCC1 [Tretinoin]
4 | inhibit | Cc1cc(Nc2ncc(Cl)c(Nc3ccccc3S(=O)(=O)C(C)C)n2)c(OC(C)C)cc1C1CCNCC1 [ceritinib]
5 | inhibit | Cc1cc(O)c2c(c1)C(=O)c1cc(O)cc(O)c1C2=O [emodin]
6 | inhibit | CO[C@H]1C[C@@H]2CC[C@@H](C)[C@@](O)(O2)C(=O)C(=O)N2CCCC[C@H]2C(=O)O[C@H]([C@H](C)C[C@@H]2CC[C@@H](OCCO)[C@H](OC)C2)CC(=O)[C@H](C)/C=C(\C)[C@@H](O)[C@@H](OC)C(=O)[C@H](C)C[C@H](C)/C=C/C=C/C=C/1C [everolimus]
7 | inhibit | COc1cc2c(Oc3ccc(NC(=O)C4(C(=O)Nc5ccc(F)cc5)CC4)cc3F)ccnc2cc1OCCCN1CCOCC1 [foretinib]
8 | suppress | C[C@]12CCC(=O)C=C1CC[C@@H]1[C@@H]2[C@@H](O)C[C@@]2(C)[C@H]1CC[C@]2(O)C(=O)CO [hydrocortisone]
9 | inhibit | CS(=O)(=O)CCNCc1ccc(-c2ccc3ncnc(Nc4ccc(OCc5cccc(F)c5)c(Cl)c4)c3c2)o1 [lapatinib]
10 | inhibit | c1cncnc1 [pyrimidine]
11 | inhibit | O=S(=O)(O)OC[C@H]1O[C@@](COS(=O)(=O)O)(O[C@H]2O[C@H](COS(=O)(=O)O)[C@@H](OS(=O)(=O)O)[C@H](OS(=O)(=O)O)[C@H]2OS(=O)(=O)O)[C@@H](OS(=O)(=O)O)[C@@H]1OS(=O)(=O)O [sucrose octasulfate]
12 | inhibit | COc1cc2nccc(Oc3ccc(NC(=O)Nc4cc(C)on4)c(Cl)c3)c2cc1OC [tivozanib]
13 | inhibit | C[C@H]1c2cccc(O)c2C(O)=C2C(=O)[C@]3(O)C(O)=C(C(N)=O)C(=O)[C@@H](N(C)C)[C@@H]3[C@@H](O)[C@@H]21 [vibramycin]
14 | terminate | heparin

Row | Molecule | Interaction Actions
15 | CO[C@H]1[C@@H](OC)C[C@H](C)[C@@H](OC)C2=CC(=O)C=C(NC(=O)/C(C)=C/C=C\[C@H](OC)[C@@H](OC(N)=O)/C(C)=C/[C@@H]1C)C2=O [herbimycin] | inhibit
